Active and inactive are the calls of the source. The rule behind the calls is not given here.
Tests used:
[1] = target: T1, Histone-arginine methyltransferase CARM1 (Homo sapiens, UniProt Q86X55); test: Inhibition of PRMT4 (unknown origin) using histone H3 (21 to 44 residues) as substrate measured after 60 mins in presence of SAM by AlphaLisa assay
T1 sequence (Q86X55 whole entry): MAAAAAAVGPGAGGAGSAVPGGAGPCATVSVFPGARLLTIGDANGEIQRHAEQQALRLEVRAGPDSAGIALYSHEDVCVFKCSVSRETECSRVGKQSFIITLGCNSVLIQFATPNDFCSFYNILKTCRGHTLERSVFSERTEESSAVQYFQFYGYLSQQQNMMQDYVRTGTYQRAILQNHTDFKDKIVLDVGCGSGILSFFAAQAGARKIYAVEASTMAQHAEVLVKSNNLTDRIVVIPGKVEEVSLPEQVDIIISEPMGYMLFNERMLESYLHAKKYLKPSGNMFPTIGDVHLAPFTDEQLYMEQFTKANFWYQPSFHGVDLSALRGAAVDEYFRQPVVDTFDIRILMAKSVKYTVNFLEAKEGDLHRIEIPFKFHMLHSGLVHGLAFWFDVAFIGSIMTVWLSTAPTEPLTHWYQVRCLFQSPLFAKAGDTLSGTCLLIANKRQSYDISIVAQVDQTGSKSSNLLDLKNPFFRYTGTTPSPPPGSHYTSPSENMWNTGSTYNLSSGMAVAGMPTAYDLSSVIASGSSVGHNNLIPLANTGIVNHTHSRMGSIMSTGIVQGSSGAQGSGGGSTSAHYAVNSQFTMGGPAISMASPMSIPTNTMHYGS

[2] = target: Protein arginine N-methyltransferase 1 (Homo sapiens, UniProt Q99873); test: Inhibition of PRMT1 (unknown origin) preincubated for 15 mins followed by substrate addition and measured after 60 mins by AlphaLisa assay
[3] = target: Protein arginine N-methyltransferase 3 (Homo sapiens, UniProt O60678); test: Inhibition of PRMT3 (unknown origin) preincubated for 15 mins followed by substrate addition and measured after 60 mins by AlphaLisa assay
[4] = target: Protein arginine N-methyltransferase 8 (Homo sapiens, UniProt Q9NR22); test: Inhibition of PRMT8 (unknown origin) preincubated for 15 mins followed by substrate addition and measured after 60 mins by AlphaLisa assay
[5] = target: Protein arginine N-methyltransferase 5 (Homo sapiens, UniProt O14744); test: Inhibition of PRMT5 (unknown origin) preincubated for 15 mins followed by substrate addition and measured after 60 mins by AlphaLisa assay
[6] = target: Histone-lysine N-methyltransferase EZH2 (Homo sapiens) (UniProt Q15910); test: Inhibition of EZH2 (unknown origin) up to 50 uM preincubated for 10 mins followed by peptide substrate addition and measured after 4 hrs in presence of SAM by HTRF assay
[7] = target: Histone-lysine N-methyltransferase NSD2 (Homo sapiens) (UniProt O96028); test: Inhibition of NSD2 (unknown origin) up to 50 uM preincubated for 15 mins followed by substrate addition and measured after 60 mins by AlphaLisa assay
[8] = target: Histone-lysine N-methyltransferase, H3 lysine-79 specific (Homo sapiens) (UniProt Q8TEK3); test: Inhibition of DOT1L (unknown origin) up to 50 uM preincubated for 15 mins followed by substrate addition and measured after 60 mins by AlphaLisa assay
[9] = target: Histone-lysine N-methyltransferase EHMT2 (Homo sapiens) (UniProt Q96KQ7); test: Inhibition of G9a (unknown origin) up to 50 uM preincubated for 15 mins followed by substrate addition and measured after 60 mins by AlphaLisa assay
[10] = target: Histone-lysine N-methyltransferase SETD2 (Homo sapiens) (UniProt Q9BYW2); test: Inhibition of SETD2 (unknown origin) up to 50 uM
[11] = test system: MV4-11; test: Antiproliferative activity against human MV4-11 cells measured after 6 days by CCK8/SRB assay; type: functional, cell-based
[12] = test system: MOLM-13; test: Antiproliferative activity against human MOLM13 cells measured after 6 days by CCK8/SRB assay; settings: MOLM-13, 144 h
[13] = test system: RS4-11; test: Antiproliferative activity against human RS4:11 cells measured after 6 days by CCK8/SRB assay; type: functional, cell-based
[14] = test system: MOLT-4; test: Antiproliferative activity against human MOLT4 cells measured after 6 days by CCK8/SRB assay; type: functional, cell-based
[15] = test system: MONO-MAC-6; test: Antiproliferative activity against human MONO-MAC-6 cells measured after 6 days by CCK8/SRB assay; type: functional, cell-based
[16] = test system: HEL; test: Antiproliferative activity against HEL cells measured after 6 days by CCK8/SRB assay; type: functional, cell-based; settings: Homo sapiens
[17] = test system: K562; test: Antiproliferative activity against human K562 cells measured after 6 days by CCK8/SRB assay; type: functional, cell-based
[18] = target: T1, Histone-arginine methyltransferase CARM1; test: Inhibition of PRMT4 in human MOLM13 cells assessed as reduction in BAF155 dimethylation measured after 96 hrs by Western blotting analysis; type: cell-based
[19] = Selectivity ratio of IC50 for antiproliferative activity against human MOLM13 cells to IC50 for inhibition of PRMT4 in human MOLM13 cells assessed as reduction in PABP1 dimethylation
[20] = test system: MOLM-13; test: Cell cycle arrest in human MOLM13 cells assessed as decrease in accumulation at S-phase measured after 72 hrs by propidium iodide staining-based flow cytometry; type: functional
[21] = test system: MOLM-13; test: Induction of apoptosis in human MOLM13 cells measured after 96 hrs by Annexin V-FITC/propidium iodide staining-based flow cytometry; type: functional, cell-based
[22] = test system: MOLM-13; test: Induction of apoptosis in human MOLM13 cells assessed as total apoptotic cells at 12 uM measured after 96 hrs by Annexin V-FITC/propidium iodide staining-based flow cytometry relative to control; type: functional
[23] = Volume of distribution at steady state in ICR mouse at 3 mg/kg, iv by mass spectrometric analysis; type: ADME, organism-based; settings: in vivo, read-out: Vdss
[24] = Half life in ICR mouse at 3 mg/kg, iv by mass spectrometric analysis; type: ADME, organism-based; settings: in vivo
[25] = AUC (0 to infinity) in ICR mouse at 3 mg/kg, iv by mass spectrometric analysis; type: ADME, organism-based; design: dose 3 mg/kg, route intravenous, time infinity; settings: in vivo
[26] = Half life in ICR mouse at 10 mg/kg, po administered via gavage by mass spectrometric analysis; type: ADME, organism-based; settings: in vivo
[27] = AUC (0 to last) in ICR mouse at 10 mg/kg, po administered via gavage by mass spectrometric analysis; type: ADME, organism-based; design: dose 10 mg/kg, route oral, time 0 - last; settings: in vivo
[28] = Protein binding in mouse plasma at 2 uM; type: ADME, cell-free; settings: read-out: PPB (converted)
[29] = test system: Mus musculus; test: In vivo inhibition of PRMT4 in nude BALB/c mouse xenografted with human MOLM13 cells assessed as reduction in PABP1 dimethylation at 100 mg/kg, po administered daily for 18 days measured 6 hrs post-last dose by Western blot analysis; type: functional, organism-based
[30] = Toxicity in nude BALB/c mouse xenografted with human MOLM13 cells assessed as body weight loss at 100 mg/kg, po administered daily for 18 days measured 2 to 3 times a week during compound dosing; type: organism-based; settings: in vivo, 432 h
[31] = Toxicity in nude BALB/c mouse xenografted with human MOLM13 cells assessed as visible changes at 100 mg/kg, po administered daily for 18 days; type: organism-based; settings: in vivo, 432 h

Sequence of Protein arginine N-methyltransferase 5 (O14744 whole entry): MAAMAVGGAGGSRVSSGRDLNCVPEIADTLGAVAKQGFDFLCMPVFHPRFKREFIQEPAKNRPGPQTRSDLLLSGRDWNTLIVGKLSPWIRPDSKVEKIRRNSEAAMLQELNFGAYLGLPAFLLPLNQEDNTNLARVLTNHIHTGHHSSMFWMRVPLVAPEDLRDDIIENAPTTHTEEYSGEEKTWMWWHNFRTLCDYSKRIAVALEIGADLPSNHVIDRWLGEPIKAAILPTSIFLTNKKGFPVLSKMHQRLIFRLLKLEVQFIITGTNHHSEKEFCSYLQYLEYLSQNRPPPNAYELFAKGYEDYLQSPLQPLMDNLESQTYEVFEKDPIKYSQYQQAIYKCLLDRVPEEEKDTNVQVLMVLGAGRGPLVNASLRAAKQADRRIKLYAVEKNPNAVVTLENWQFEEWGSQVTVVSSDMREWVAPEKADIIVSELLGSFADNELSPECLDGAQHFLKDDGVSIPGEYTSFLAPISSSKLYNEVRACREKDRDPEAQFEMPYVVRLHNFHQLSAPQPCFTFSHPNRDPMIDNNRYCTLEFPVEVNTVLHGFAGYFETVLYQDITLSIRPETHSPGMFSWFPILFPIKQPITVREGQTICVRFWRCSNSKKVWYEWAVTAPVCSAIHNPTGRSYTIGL
Sequence of Histone-lysine N-methyltransferase EZH2 (Homo sapiens) (Q15910 whole entry, looked up): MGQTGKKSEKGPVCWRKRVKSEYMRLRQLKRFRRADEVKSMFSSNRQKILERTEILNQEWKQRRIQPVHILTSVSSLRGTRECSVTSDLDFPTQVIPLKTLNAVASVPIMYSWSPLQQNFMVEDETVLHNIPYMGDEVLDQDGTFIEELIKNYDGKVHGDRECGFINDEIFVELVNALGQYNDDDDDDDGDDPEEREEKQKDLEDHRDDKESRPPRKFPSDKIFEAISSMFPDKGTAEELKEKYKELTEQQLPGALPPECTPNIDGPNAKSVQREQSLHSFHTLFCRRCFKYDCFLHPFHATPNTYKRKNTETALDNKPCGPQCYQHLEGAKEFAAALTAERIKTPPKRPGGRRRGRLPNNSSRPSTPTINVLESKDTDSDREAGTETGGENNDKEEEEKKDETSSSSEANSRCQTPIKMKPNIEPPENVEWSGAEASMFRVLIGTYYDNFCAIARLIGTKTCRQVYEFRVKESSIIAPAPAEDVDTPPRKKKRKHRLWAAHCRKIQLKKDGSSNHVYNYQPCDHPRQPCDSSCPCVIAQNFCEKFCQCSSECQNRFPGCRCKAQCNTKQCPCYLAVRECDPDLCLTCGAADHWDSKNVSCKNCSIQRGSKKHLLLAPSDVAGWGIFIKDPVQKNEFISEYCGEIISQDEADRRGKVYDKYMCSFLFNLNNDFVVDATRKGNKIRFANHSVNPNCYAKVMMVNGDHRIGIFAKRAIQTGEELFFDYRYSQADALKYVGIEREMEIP
Sequence of Protein arginine N-methyltransferase 1 (Q99873 whole entry): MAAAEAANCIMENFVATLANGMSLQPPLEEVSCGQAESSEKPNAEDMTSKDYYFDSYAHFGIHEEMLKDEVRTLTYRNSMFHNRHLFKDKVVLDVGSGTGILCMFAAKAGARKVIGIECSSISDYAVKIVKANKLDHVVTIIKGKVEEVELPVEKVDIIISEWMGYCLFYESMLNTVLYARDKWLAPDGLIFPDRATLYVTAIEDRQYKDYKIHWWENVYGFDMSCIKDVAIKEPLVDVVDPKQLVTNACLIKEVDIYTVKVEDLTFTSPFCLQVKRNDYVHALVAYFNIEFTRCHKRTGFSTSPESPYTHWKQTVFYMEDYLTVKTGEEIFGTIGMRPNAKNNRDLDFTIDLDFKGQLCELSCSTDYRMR
Sequence of Histone-lysine N-methyltransferase EHMT2 (Homo sapiens) (Q96KQ7 whole entry): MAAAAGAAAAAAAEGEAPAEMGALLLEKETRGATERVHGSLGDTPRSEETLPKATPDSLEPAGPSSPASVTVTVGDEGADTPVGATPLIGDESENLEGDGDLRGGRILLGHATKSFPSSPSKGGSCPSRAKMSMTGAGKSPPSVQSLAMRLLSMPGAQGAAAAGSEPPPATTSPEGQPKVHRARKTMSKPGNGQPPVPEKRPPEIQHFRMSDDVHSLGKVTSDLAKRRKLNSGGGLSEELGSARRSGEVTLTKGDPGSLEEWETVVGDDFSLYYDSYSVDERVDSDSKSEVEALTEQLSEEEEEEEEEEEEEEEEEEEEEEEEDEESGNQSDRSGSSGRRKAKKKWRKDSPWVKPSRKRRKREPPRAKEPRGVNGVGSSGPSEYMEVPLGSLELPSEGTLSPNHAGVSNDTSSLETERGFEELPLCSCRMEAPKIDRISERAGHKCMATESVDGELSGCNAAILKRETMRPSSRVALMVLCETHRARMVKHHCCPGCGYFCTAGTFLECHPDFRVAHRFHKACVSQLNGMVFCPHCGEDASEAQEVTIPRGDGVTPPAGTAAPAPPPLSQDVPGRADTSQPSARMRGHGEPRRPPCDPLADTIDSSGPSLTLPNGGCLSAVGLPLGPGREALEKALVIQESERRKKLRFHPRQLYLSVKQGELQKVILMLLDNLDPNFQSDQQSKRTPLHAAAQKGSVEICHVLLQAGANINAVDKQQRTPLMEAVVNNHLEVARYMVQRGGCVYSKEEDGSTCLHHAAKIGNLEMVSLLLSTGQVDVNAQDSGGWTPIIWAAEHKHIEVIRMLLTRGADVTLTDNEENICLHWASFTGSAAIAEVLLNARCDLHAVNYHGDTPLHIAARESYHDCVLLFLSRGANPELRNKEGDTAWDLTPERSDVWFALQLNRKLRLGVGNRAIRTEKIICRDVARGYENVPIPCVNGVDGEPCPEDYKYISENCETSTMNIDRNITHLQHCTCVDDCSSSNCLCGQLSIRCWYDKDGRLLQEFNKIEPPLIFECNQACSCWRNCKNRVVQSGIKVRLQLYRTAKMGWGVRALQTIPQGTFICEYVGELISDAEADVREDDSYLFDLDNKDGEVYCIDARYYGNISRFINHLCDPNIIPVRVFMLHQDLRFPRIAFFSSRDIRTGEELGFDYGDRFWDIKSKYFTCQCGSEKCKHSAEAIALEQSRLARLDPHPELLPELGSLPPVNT
Sequence of Protein arginine N-methyltransferase 8 (Q9NR22 whole entry): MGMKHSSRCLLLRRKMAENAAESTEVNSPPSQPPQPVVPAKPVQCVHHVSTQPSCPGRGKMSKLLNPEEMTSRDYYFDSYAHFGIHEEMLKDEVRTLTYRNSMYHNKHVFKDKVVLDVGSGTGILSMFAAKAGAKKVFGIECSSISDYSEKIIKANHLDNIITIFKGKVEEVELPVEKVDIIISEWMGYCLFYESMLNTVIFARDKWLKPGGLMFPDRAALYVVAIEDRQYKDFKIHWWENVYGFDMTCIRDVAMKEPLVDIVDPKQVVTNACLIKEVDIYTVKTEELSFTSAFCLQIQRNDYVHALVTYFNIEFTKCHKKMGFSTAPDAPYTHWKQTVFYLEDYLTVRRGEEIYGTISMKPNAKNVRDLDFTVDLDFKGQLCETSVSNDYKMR
Sequence of Histone-lysine N-methyltransferase NSD2 (Homo sapiens) (O96028 whole entry): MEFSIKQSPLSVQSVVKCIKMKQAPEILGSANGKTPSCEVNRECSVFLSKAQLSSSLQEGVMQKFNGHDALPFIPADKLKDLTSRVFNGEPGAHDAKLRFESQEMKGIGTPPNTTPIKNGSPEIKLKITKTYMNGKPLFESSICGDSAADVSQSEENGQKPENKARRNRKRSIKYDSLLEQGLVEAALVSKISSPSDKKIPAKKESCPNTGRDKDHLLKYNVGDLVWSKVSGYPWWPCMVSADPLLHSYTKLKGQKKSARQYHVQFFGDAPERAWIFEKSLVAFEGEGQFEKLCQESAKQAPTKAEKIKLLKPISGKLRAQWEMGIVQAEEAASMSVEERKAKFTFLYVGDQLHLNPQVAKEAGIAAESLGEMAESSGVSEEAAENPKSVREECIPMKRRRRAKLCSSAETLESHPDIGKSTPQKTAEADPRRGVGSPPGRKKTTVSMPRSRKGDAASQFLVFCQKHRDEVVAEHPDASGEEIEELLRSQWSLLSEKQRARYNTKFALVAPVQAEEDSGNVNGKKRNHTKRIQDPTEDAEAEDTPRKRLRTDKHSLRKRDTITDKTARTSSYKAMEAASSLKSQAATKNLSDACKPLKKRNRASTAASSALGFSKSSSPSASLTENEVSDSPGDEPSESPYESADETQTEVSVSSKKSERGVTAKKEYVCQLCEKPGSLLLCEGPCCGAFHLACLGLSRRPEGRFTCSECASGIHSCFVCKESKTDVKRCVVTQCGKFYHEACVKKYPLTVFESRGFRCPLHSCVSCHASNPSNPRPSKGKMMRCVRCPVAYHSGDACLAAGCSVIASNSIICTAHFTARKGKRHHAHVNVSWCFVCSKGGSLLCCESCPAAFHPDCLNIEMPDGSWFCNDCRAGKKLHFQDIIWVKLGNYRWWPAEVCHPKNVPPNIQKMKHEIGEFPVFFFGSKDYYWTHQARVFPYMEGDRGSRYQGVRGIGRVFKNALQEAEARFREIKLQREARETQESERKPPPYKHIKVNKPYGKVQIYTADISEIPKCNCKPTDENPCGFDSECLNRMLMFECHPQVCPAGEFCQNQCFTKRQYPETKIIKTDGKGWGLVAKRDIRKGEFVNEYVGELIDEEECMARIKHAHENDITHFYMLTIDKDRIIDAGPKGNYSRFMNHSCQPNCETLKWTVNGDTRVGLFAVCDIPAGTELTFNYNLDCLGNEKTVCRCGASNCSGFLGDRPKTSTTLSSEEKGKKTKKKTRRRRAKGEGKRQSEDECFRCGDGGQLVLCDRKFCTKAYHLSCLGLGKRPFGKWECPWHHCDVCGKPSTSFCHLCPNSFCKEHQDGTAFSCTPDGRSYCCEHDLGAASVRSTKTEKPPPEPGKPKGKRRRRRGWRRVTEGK

With `CNC[C@@H](O)CN1CCc2c(cccc2OCc2ccc(-c3nccs3)cc2)C1` the IC50 [1] was 0.021 µM, the IC50 [2] was 8.6 µM and the IC50 [3] was greater than 10 µM. The IC50 [4] was 3.7 µM, the IC50 [5] was greater than 30 µM and the inhibition [6] was “inactive”. The inhibition [7] was “inactive”, the inhibition [8] was “inactive” and the inhibition [9] was “inactive”. For the same compound, the inhibition [10] was “inactive”, the Activity [11] was “Dose-dependent effect” and the IC50 [12] was 6.93 µM. The Activity [13] was “Dose-dependent effect”, the Activity [14] was “Dose-dependent effect” and the Activity [15] was “Dose-dependent effect”. For the same compound, the Activity [16] was “Dose-dependent effect”, the Activity [17] was “Dose-dependent effect” and the IC50 [18] was 0.369 µM. The “Ratio IC50” value [19] was 10, the Activity [20] was “Dose-dependent effect” and the Activity [21] was “Dose-dependent effect”. It also gave an Activity [22] of 96.4%, a Vd [23] of 42.6 L/kg and a half-life [24] of 12.1 h. It also gave an AUC(0-inf) [25] of 1160 ng·h/mL, a half-life [26] of 24.1 h and an AUC(0-t) [27] of 1410 ng·h/mL. For the same compound, the fraction unbound at 2 µM [28] was 0.02, the inhibition [29] was “Active” and the Activity [30] was “Non-Toxic”. The Activity [31] was “Non-Toxic”.
